According to EP3336173A1, “A STRAIN OF A[…] APPLICATIONS THEREOF” (Infinitec Activos S.L., priority 2016, dated 2018):

System: Prostaglandin E2 (PGE2)
Experiment: Anti-inflammatory activity: PGE2 quantification by ELISA in cells stimulated by IL-1α
Type: cell-based
Details: Cycloheximide 100 µg/ml; IL-1α (5 pM)
Method: When cells are stimulated by an inflammatory agent PGE2 is synthesized de novo and released into the extracellular space. Thus quantification of PGE2 is used to asses the anti-inflammatory activity products.
In the present example the anti-inflammatory activity of the extract of example 2 was determined by quantification of PGE2 in cells stimulated by IL-1α using a kit for an enzyme-linked immunosorbent assay (ELISA). The kit used was Prostaglandin E2 EIA kit Item n° 514010 from Cayman Chemical.
Prostaglandin E2 assay is based on competition between the PGE2 to be determined and a fixed amount of added PGE2-acetylcholinesterase (AChE) conjugate (PGE2 tracer) for a limited amount of PGE2 monoclonal antibody. The amount of PGE2 tracer able to bind the PGE2 monoclonal antibody will be inversely proportional to the concentration of PGE2 in the well. Both the antibody-PGE2 complex and then antibody-PGE2 tracer complex bind to polyclonal goat anti-mouse IgG previously bound to the well. Then the plate is washed to remove any unbound reagent and Ellman's reagent is added to determine the amount of AChE bound to the well. […] The intensity of this color, determined by UV-Vis spectrophotometry, is proportional to the amount of PGE2 tracer bound […], which is inversely proportional to the amount of PGE2 present in the free well during incubation.

C[C@@H]1C[C@@H]([C@H](O)CC2CC(=O)NC(=O)C2)C(=O)[C@@H](C)C1 [Cycloheximide]
PGE2: 31.85 pg/mL | inhibition at 100 µg/mL: 97.6%
